According to PubChem BioAssay (NCI):
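How tested: cells in 96-well plates exposed to compound for 48 hours at five concentrations. GI50 = concentration required for 50% inhibition of growth. The concentration for full growth arrest is given as TGI.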

Key:
Assay in all cases: NCI tumour cell line growth inhibition, 48 h
786-0 renal = test system: 786-0 renal
A498 renal = test system: A498 renal
A549 NSCLC = test system: A549 NSCLC
ACHN renal = test system: ACHN renal
BT-549 breast = test system: BT-549 breast
CAKI-1 renal = test system: CAKI-1 renal
CCRF-CEM leukemia = test system: CCRF-CEM leukemia
COLO 205 colon = test system: COLO 205 colon
DU-145 prostate = test system: DU-145 prostate
EKVX NSCLC = test system: EKVX NSCLC
HCC-2998 colon = test system: HCC-2998 colon
HCT-116 colon = test system: HCT-116 colon
HCT-15 colon = test system: HCT-15 colon
HL-60(TB) leukemia = test system: HL-60(TB) leukemia
HOP-62 NSCLC = test system: HOP-62 NSCLC
HOP-92 NSCLC = test system: HOP-92 NSCLC
HS 578T breast = test system: HS 578T breast
HT29 colon = test system: HT29 colon
IGROV1 ovarian = test system: IGROV1 ovarian
K-562 leukemia = test system: K-562 leukemia
KM12 colon = test system: KM12 colon
LOX IMVI melanoma = test system: LOX IMVI melanoma
M14 melanoma = test system: M14 melanoma
MALME-3M melanoma = test system: MALME-3M melanoma
MCF7 breast = test system: MCF7 breast
MDA-MB-231 breast = test system: MDA-MB-231 breast
MDA-MB-435 = test system: MDA-MB-435
MOLT-4 leukemia = test system: MOLT-4 leukemia
NCI-H226 lung = test system: NCI-H226 lung
NCI-H23 lung = test system: NCI-H23 lung
NCI-H460 lung = test system: NCI-H460 lung
NCI-H522 lung = test system: NCI-H522 lung
NCI/ADR-RES ovarian = test system: NCI/ADR-RES ovarian
OVCAR-3 ovarian = test system: OVCAR-3 ovarian
OVCAR-4 ovarian = test system: OVCAR-4 ovarian
OVCAR-5 ovarian = test system: OVCAR-5 ovarian
OVCAR-8 ovarian = test system: OVCAR-8 ovarian
PC-3 prostate = test system: PC-3 prostate
RPMI-8226 leukemia = test system: RPMI-8226 leukemia
RXF 393 renal = test system: RXF 393 renal
SF-268 CNS = test system: SF-268 CNS
SF-295 CNS = test system: SF-295 CNS
SF-539 CNS = test system: SF-539 CNS
SK-MEL-2 melanoma = test system: SK-MEL-2 melanoma
SK-MEL-28 melanoma = test system: SK-MEL-28 melanoma
SK-MEL-5 melanoma = test system: SK-MEL-5 melanoma
SK-OV-3 ovarian = test system: SK-OV-3 ovarian
SN12C renal = test system: SN12C renal
SNB-19 CNS = test system: SNB-19 CNS
SNB-75 CNS = test system: SNB-75 CNS
SR leukemia = test system: SR leukemia
SW-620 colon = test system: SW-620 colon
T-47D breast = test system: T-47D breast
TK-10 renal = test system: TK-10 renal
U251 CNS = test system: U251 CNS
UACC-257 melanoma = test system: UACC-257 melanoma
UACC-62 melanoma = test system: UACC-62 melanoma
UO-31 renal = test system: UO-31 renal
MDA-N = test system: MDA-N

`CN(C)CCOc1ccc2c(c1)C(=O)/C(=C\c1ncc([N+](=O)[O-])n1C)C2` was tested, and the GI50 (786-0 renal) was 0.857 µM, the TGI (786-0 renal) was 3.39 µM and the GI50 (A498 renal) was 0.307 µM. For the same compound, the TGI (A498 renal) was 0.931 µM, the GI50 (A549 NSCLC) was 0.37 µM and the TGI (A549 NSCLC) was 5.14 µM. The GI50 (ACHN renal) was 0.298 µM, the TGI (ACHN renal) was 2.37 µM and the GI50 (BT-549 breast) was 0.146 µM. For the same compound, the TGI (BT-549 breast) was 0.529 µM, the GI50 (CAKI-1 renal) was 0.386 µM and the TGI (CAKI-1 renal) was 2.4 µM. The GI50 (CCRF-CEM leukemia) was 1.39 µM, the TGI (CCRF-CEM leukemia) was > 100 µM and the GI50 (COLO 205 colon) was 0.25 µM. For the same compound, the TGI (COLO 205 colon) was 0.628 µM, the GI50 (DU-145 prostate) was 0.234 µM and the TGI (DU-145 prostate) was 0.661 µM. It also gave a GI50 (EKVX NSCLC) of 0.711 µM, a TGI (EKVX NSCLC) of 3.83 µM and a GI50 (HCC-2998 colon) of 0.507 µM. It also gave a TGI (HCC-2998 colon) of 1.75 µM, a GI50 (HCT-116 colon) of 0.316 µM and a TGI (HCT-116 colon) of 1.28 µM. It also gave a GI50 (HCT-15 colon) of 0.311 µM, a TGI (HCT-15 colon) of 7.39 µM and a GI50 (HL-60(TB) leukemia) of 0.235 µM. For the same compound, the TGI (HL-60(TB) leukemia) was 1.09 µM, the GI50 (HOP-62 NSCLC) was 1.59 µM and the TGI (HOP-62 NSCLC) was 4.34 µM. For the same compound, the GI50 (HOP-92 NSCLC) was 0.701 µM, the TGI (HOP-92 NSCLC) was 3.25 µM and the GI50 (HS 578T breast) was 1.87 µM. For the same compound, the TGI (HS 578T breast) was 5.37 µM, the GI50 (HT29 colon) was 0.346 µM and the TGI (HT29 colon) was 2.25 µM. It also gave a GI50 (IGROV1 ovarian) of 0.147 µM, a TGI (IGROV1 ovarian) of 0.378 µM and a GI50 (K-562 leukemia) of 0.295 µM. It also gave a GI50 (KM12 colon) of 1.19 µM, a TGI (KM12 colon) of 3.21 µM and a GI50 (LOX IMVI melanoma) of 0.331 µM. For the same compound, the TGI (LOX IMVI melanoma) was 1.85 µM, the GI50 (M14 melanoma) was 0.543 µM and the TGI (M14 melanoma) was 1.83 µM. It also gave a GI50 (MALME-3M melanoma) of 0.371 µM, a TGI (MALME-3M melanoma) of 1.69 µM and a GI50 (MCF7 breast) of 0.216 µM. The TGI (MCF7 breast) was 2.5 µM, the GI50 (MDA-MB-231 breast) was 0.418 µM and the TGI (MDA-MB-231 breast) was 2.33 µM. For the same compound, the GI50 (MDA-MB-435) was 0.209 µM, the TGI (MDA-MB-435) was 0.643 µM and the GI50 (MOLT-4 leukemia) was 0.358 µM. The TGI (MOLT-4 leukemia) was 1.65 µM, the GI50 (NCI-H226 lung) was 1.31 µM and the TGI (NCI-H226 lung) was 3.7 µM. The GI50 (NCI-H23 lung) was 0.258 µM, the TGI (NCI-H23 lung) was 1.3 µM and the GI50 (NCI-H460 lung) was 0.217 µM. The TGI (NCI-H460 lung) was 0.808 µM, the GI50 (NCI-H522 lung) was 0.191 µM and the TGI (NCI-H522 lung) was 0.492 µM. For the same compound, the GI50 (NCI/ADR-RES ovarian) was 1.43 µM, the TGI (NCI/ADR-RES ovarian) was 4.55 µM and the GI50 (OVCAR-3 ovarian) was 0.359 µM. It also gave a TGI (OVCAR-3 ovarian) of 1.26 µM, a GI50 (OVCAR-4 ovarian) of 0.529 µM and a TGI (OVCAR-4 ovarian) of 3.53 µM. It also gave a GI50 (OVCAR-5 ovarian) of 2.02 µM, a TGI (OVCAR-5 ovarian) of 5.7 µM and a GI50 (OVCAR-8 ovarian) of 0.95 µM. For the same compound, the TGI (OVCAR-8 ovarian) was > 20.5 µM, the GI50 (PC-3 prostate) was 0.965 µM and the TGI (PC-3 prostate) was 4.82 µM. For the same compound, the GI50 (RPMI-8226 leukemia) was 2.14 µM, the TGI (RPMI-8226 leukemia) was 14.4 µM and the GI50 (RXF 393 renal) was 0.316 µM. The TGI (RXF 393 renal) was 1.25 µM, the GI50 (SF-268 CNS) was 0.489 µM and the TGI (SF-268 CNS) was 3.11 µM. It also gave a GI50 (SF-295 CNS) of 0.46 µM, a TGI (SF-295 CNS) of 1.47 µM and a GI50 (SF-539 CNS) of 1.4 µM. The TGI (SF-539 CNS) was 3.35 µM, the GI50 (SK-MEL-2 melanoma) was 0.631 µM and the TGI (SK-MEL-2 melanoma) was 1.93 µM. For the same compound, the GI50 (SK-MEL-28 melanoma) was 0.922 µM, the TGI (SK-MEL-28 melanoma) was 2.79 µM and the GI50 (SK-MEL-5 melanoma) was 0.179 µM. For the same compound, the TGI (SK-MEL-5 melanoma) was 0.402 µM, the GI50 (SK-OV-3 ovarian) was 0.923 µM and the TGI (SK-OV-3 ovarian) was 3.21 µM. For the same compound, the GI50 (SN12C renal) was 1.12 µM, the TGI (SN12C renal) was 5.21 µM and the GI50 (SNB-19 CNS) was 1.15 µM. It also gave a TGI (SNB-19 CNS) of 3.18 µM, a GI50 (SNB-75 CNS) of 0.474 µM and a TGI (SNB-75 CNS) of 1.98 µM. The GI50 (SR leukemia) was 0.416 µM, the TGI (SR leukemia) was 0.96 µM and the GI50 (SW-620 colon) was 0.474 µM. It also gave a TGI (SW-620 colon) of 4.22 µM, a GI50 (T-47D breast) of 1.76 µM and a TGI (T-47D breast) of 11.4 µM. The GI50 (TK-10 renal) was 1.57 µM, the TGI (TK-10 renal) was 4.8 µM and the GI50 (U251 CNS) was 1.12 µM. For the same compound, the TGI (U251 CNS) was 4.75 µM, the GI50 (UACC-257 melanoma) was 0.917 µM and the TGI (UACC-257 melanoma) was 3.19 µM. The GI50 (UACC-62 melanoma) was 0.851 µM, the TGI (UACC-62 melanoma) was 2.49 µM and the GI50 (UO-31 renal) was 0.9 µM. The TGI (UO-31 renal) was 3.68 µM.

For `CC(C)c1cc(C(C)C)c(B(c2ccccc2)c2ccccc2)c(C(C)C)c1B(c1ccccc1)c1ccccc1`, the TGI (A549 NSCLC) was > 100 µM, the TGI (ACHN renal) was > 100 µM and the TGI (COLO 205 colon) was > 100 µM. The TGI (DU-145 prostate) was > 100 µM, the TGI (EKVX NSCLC) was > 100 µM and the TGI (HCT-116 colon) was > 100 µM. The TGI (HCT-15 colon) was > 100 µM, the TGI (HOP-62 NSCLC) was > 100 µM and the TGI (HOP-92 NSCLC) was > 100 µM. For the same compound, the TGI (HS 578T breast) was > 100 µM, the TGI (HT29 colon) was > 100 µM and the TGI (IGROV1 ovarian) was > 100 µM. The TGI (LOX IMVI melanoma) was > 100 µM, the TGI (M14 melanoma) was > 100 µM and the TGI (MALME-3M melanoma) was > 100 µM. The TGI (MDA-MB-231 breast) was > 100 µM, the TGI (MDA-N) was > 100 µM and the TGI (MOLT-4 leukemia) was > 100 µM. For the same compound, the TGI (NCI-H460 lung) was > 100 µM, the TGI (NCI-H522 lung) was > 100 µM and the TGI (NCI/ADR-RES ovarian) was > 100 µM. For the same compound, the TGI (OVCAR-3 ovarian) was > 100 µM, the TGI (OVCAR-4 ovarian) was > 100 µM and the TGI (OVCAR-8 ovarian) was > 100 µM. The TGI (PC-3 prostate) was > 100 µM, the TGI (SF-268 CNS) was > 100 µM and the TGI (SF-295 CNS) was > 100 µM. For the same compound, the TGI (SK-MEL-2 melanoma) was > 100 µM, the TGI (SK-MEL-5 melanoma) was > 100 µM and the TGI (SK-OV-3 ovarian) was > 100 µM. For the same compound, the TGI (SN12C renal) was > 100 µM, the TGI (SNB-75 CNS) was > 100 µM and the TGI (SR leukemia) was > 100 µM. For the same compound, the TGI (SW-620 colon) was > 100 µM, the TGI (T-47D breast) was > 100 µM and the TGI (UACC-257 melanoma) was > 100 µM. For the same compound, the TGI (UACC-62 melanoma) was > 100 µM.
